Experimental data: PMC7751407, “Novel oxindole/benzofuran hybrids as potential dual CDK2/GSK-3β inhibitors targeting breast cancer: design, synthesis, biological evaluation, and in silico studies” (Journal of Enzyme Inhibition and Medicinal Chemistry, 2020)

Columns and labels:
[1] = biological target: T1, CDK2 (Homo sapiens, UniProt P24941); experiment: CDK2 kinase inhibition (CDK2 Kinase Enzyme System, Promega); assay type: biochemical; settings: mean ± SD of three separate experiments
T1 construct: purchased Promega, Milan, Italy V2971
Method: (§1) 2. CDK2/GSK-3β Kinase Inhibitory Activities
(§2) The CDK2 and GSK-3β inhibitory activities were determined for hybrids 5a-g using the CDK2
(§3) Kinase Enzyme System (catalog No. V2971) (Promega, Milan, Italy), and GSK3β Assay Kit

[2] = biological target: T2, GSK-3β (Homo sapiens, UniProt P49841); experiment: GSK-3β kinase inhibition (GSK3β Assay Kit, BPS Biosciences); assay type: biochemical; settings: mean ± SD of three separate experiments
T2 construct: purchased BPS Biosciences, San Diego, CA, USA 79700
T2 sequence (P49841 whole entry): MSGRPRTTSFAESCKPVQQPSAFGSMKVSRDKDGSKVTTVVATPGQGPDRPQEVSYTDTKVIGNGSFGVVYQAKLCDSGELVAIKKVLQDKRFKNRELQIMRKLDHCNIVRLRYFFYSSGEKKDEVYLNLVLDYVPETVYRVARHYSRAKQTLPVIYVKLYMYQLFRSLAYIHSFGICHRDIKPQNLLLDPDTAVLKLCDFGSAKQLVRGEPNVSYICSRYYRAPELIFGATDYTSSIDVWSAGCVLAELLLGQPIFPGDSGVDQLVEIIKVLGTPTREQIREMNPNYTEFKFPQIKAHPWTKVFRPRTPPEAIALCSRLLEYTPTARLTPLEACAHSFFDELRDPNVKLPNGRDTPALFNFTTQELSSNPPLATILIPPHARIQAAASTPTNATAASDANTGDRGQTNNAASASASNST
Method: as §1, §2, §3

[3] = tested on: T-47D; experiment: MTT anti-proliferative assay, T-47D breast cancer cells; assay type: cell-based; settings: Homo sapiens, T47D, 48 h exposure, mean ± SD of three separate experiments
Method: (§4) 1. Anti-proliferative activity toward human breast cell lines
(§5) The two examined human breast cancer cell lines (T-47D and MCF-7) have been obtained from American Type Culture Collection (ATCC). Cells lines were maintained as monolayers in Dulbecco’s Modified Eagle’s Medium (DMEM) supplemented with 10% FBS, 2 mM L-glutamine, 100 U/ml penicillin and 100µg/ml streptomycin sulfate. Cells were sub-cultured with trypsine /EDTA solution, counted with haemocytometer and plated onto 96-well plates (5000 cells/well) and left overnight to form a semi-confluent monolayer. Cell monolayers were treated in quadrates with vehicle (DMSO, 0.1% v/v), test samples or Adriamycin as positive control for an exposure time of 48 h. At the end of exposure, MTT solution in PBS (5 mg/ml) was then added to all well including no cell blank and left to incubate for 90 min. The formation of formazan crystals were visually confirmed using phase contract microscopy. DMSO (100 µl/well) was added to dissolve the formazan crystals with shaking for 10 min after which the absorbance was read at 590 nm against no cell blanks on a FLuo Star Optima microplate reader (BMG technologies, Germany).
(§6) Cell proliferation was calculated comparing the OD values of the DMSO control wells and those of the samples represented as % proliferation to the control. Dose-response experiment was performed on samples producing > or =50% loss of cell proliferation using five serial 2-fold […]
(§7) IC50 values (concentration of sample causing 50% loss of cell proliferation of the vehicle control) were calculated using non-linear regression curve fitting of the dose response plots on GraphPad Prism V.6.0 software. […]

[4] = tested on: MCF-7; experiment: MTT anti-proliferative assay, MCF-7 breast cancer cells; assay type: cell-based; settings: Homo sapiens, MCF7, 48 h exposure, mean ± SD of three separate experiments
Method: as §4, §5, §6, §7

[5] = tested on: MCF-10A; experiment: MTT cytotoxicity towards non-tumorigenic breast cells MCF-10A; assay type: cell-based, human; settings: for IC50: Homo sapiens, MCF-10A, MTT assay, non-tumorigenic breast cell line; for Mean tumour selectivity index (S.I.): IC50 for MCF-10A/IC50 average for (MCF-7 and T-47D)
Excerpt: In order to investigate their selectivity on cancer cells, hybrids 5d, 5e and 5f, endowed with dual growth inhibitory action against MCF-7 and T-47D cells, were assesses for their cytotoxic action towards the non-tumorigenic breast cells (MCF-10A), via the MTT assay. The obtained IC50s and the calculated mean tumour selectivity index (S.I.); IC50 for MCF-10A/IC50 average for (MCF-7 and T-47D) have been presented in Table 5.
as §4, §5
Cell proliferation was calculated comparing the OD values of the DMSO control wells and those of the samples represented as % proliferation to the control. Dose-response experiment was performed on samples producing > or =50% loss of cell proliferation using five serial 2-fold dilutions (50, 25, 12.5, 6.25 and 3.125 µM) of the sample. IC50 values (concentration of sample causing 50% loss of cell proliferation of the vehicle control) were calculated using non-linear regression curve fitting of the dose response plots on GraphPad Prism V.6.0 software. […]

[6] = tested on: MCF-7 cells; experiment: Annexin V-FITC/PI dual staining apoptosis assay in MCF-7 cells; assay type: cell-based, human; settings: at IC50 concentration; for Late Apoptosis (Upper Right %): control 0.19; for Early Apoptosis (Lower Right %): control 0.63; for Total apoptosis (L.R % + U.R %): control 0.82; for Necrosis: upper left quadrant, control 0.49
Method: To investigate further the effect of the promising compounds 5d, 5e, and 5f on cell apoptosis, Annexin V-FITC/propidium iodide dual staining assay was performed according to the reported method. The morphological markers of apoptosis in the breast cancer MCF-7 cell line were examined before and after treatment with the compounds of interest. Apoptosis assay depends on the translocation of the phosphatidylserine (PS) phospholipid to the cell surface in cells undergoing apoptosis which can be easily detected by staining with the fluorescent conjugate of annexin V followed by flow cytometry analysis. Simultaneously, MCF-7 cells were stained with propidium iodide (PI) which could enter cells with damaged plasma membranes only. This enables the discrimination between early apoptotic cells (positive for PS, but negative for PI) from late apoptotic and necrotic cells (positive for both PS and PI). […]
4. Annexin V-FITC Apoptosis Assay
Phosphatidylserine externalization was assayed using Annexin V-FITC/PI apoptosis detection kit (BD Biosciences, USA) according to the manufacturer’s instructions. Breast cancer MCF-7 cells were cultured to a monolayer then treated with hybrids (5d, 5e and 5f) at their IC50 concentration. Briefly, cells were then harvested via trypsinization, and rinsed twice in PBS followed by binding buffer. Moreover, cells were re-suspended in 100 μL of binding buffer with the addition of 1 μL of FITC-Annexin V followed by an incubation period of 30 min at 4 °C. Cells were then rinsed in binding buffer and resuspended in 150 μL of binding buffer with the addition of 1 μL of DAPI (1 μg/μL in PBS). Cells were then analyzed using the flow cytometer BD FACS Canto II and the results were interpreted with FlowJo7.6.4 software (Tree Star, Ashland, OR,

[7] = tested on: MCF-7 cells; experiment: Cell cycle analysis by flow cytometry (PI stain) in MCF-7 cells; assay type: cell-based, human; settings: 24 h, at IC50 concentration; for %Sub-G1: control 1.29; for %G2/M: control 11.3; for %S: control 33.82; for %G0-G1: control 53.59
Method: Compounds showing promising antiproliferative as well as kinase inhibitory activity 5d, 5e and 5f were further investigated for their influence on the cell cycle progression by flow cytometry analysis using propidium iodide (PI) stain. Cell cycle parameters were compared for the breast cancer MCF-7 cells with DMSO as control and after treatment with the compounds of interest and incubation for 24 h, and the results were presented in Figure 5 and Table 3. […]
concentration), and then cells were washed twice with ice-cold phosphate buffered saline (PBS).
Subsequently, the treated cells were collected by centrifugation, fixed in ice-cold 70% (v/v) ethanol, washed with PBS, re-suspended with 100 μg/mL RNase, stained with 40 μg/mL PI, and analyzed by flow cytometry using FACS Calibur (Becton Dickinson, BD, Franklin Lakes, NJ,

Row | SMILES | melting point | IC50 [1] | IC50 [2] | IC50 [3] | IC50 [4] | other results
1 | O=C1Nc2ccccc2C1=NNC(=O)c1cc2cc(Br)ccc2o1 [5a, 5-Bromo-N'-(2-oxoindolin-3-ylidene)benzofuran-2-carbohydrazide] | > 300 °C | 0.141 ± 0.0077 µM | 0.137 ± 0.0075 µM | 9.67 ± 0.31 µM | 5.47 ± 0.16 µM | –
2 | O=C1Nc2ccc(F)cc2C1=NNC(=O)c1cc2cc(Br)ccc2o1 [5b, 5-Bromo-N'-(5-fluoro-2-oxoindolin-3-ylidene)benzofuran-2-carbohydrazide] | > 300 °C | 0.0525 ± 0.0029 µM | 0.212 ± 0.012 µM | 1.27 ± 0.04 µM | 12.9 ± 0.38 µM | –
3 | O=C1Nc2ccc(Cl)cc2C1=NNC(=O)c1cc2cc(Br)ccc2o1 [5c, 5-Bromo-N'-(5-chloro-2-oxoindolin-3-ylidene)benzofuran-2-carbohydrazide] | > 300 °C | 0.0854 ± 0.0046 µM | 0.102 ± 0.0056 µM | 6.03 ± 0.19 µM | 12.5 ± 0.37 µM | –
4 | O=C1Nc2ccc(Br)cc2C1=NNC(=O)c1cc2cc(Br)ccc2o1 [5d, 5-Bromo-N'-(5-bromo-2-oxoindolin-3-ylidene)benzofuran-2-carbohydrazide] | > 300 °C | 0.0378 ± 0.0021 µM | 0.0321 ± 0.0017 µM | 3.82 ± 0.12 µM | 3.41 ± 0.1 µM | IC50 [5]: 21.7 ± 1.05 µM; Mean tumour selectivity index (S.I.) [5]: 6.0; Late Apoptosis (Upper Right %) [6]: 10.14%; Early Apoptosis (Lower Right %) [6]: 3.61%; Total apoptosis (L.R % + U.R %) [6]: 13.75%; Necrosis [6]: 1.56%; %Sub-G1 [7]: 13.27%; %G2/M [7]: 30.26%; %S [7]: 22.5%; %G0-G1 [7]: 33.97%
5 | Cc1ccc2c(c1)C(=NNC(=O)c1cc3cc(Br)ccc3o1)C(=O)N2 [5e, 5-Bromo-N'-(5-methyl-2-oxoindolin-3-ylidene)benzofuran-2-carbohydrazide] | > 300 °C | 0.177 ± 0.0096 µM | 0.0808 ± 0.0044 µM | 4.53 ± 0.14 µM | 3.45 ± 0.1 µM | IC50 [5]: 23.6 ± 0.86 µM; Mean tumour selectivity index (S.I.) [5]: 5.9; Late Apoptosis (Upper Right %) [6]: 15.08%; Early Apoptosis (Lower Right %) [6]: 4.66%; Total apoptosis (L.R % + U.R %) [6]: 19.74%; Necrosis [6]: 1.81%; %Sub-G1 [7]: 17.73%; %G2/M [7]: 29.21%; %S [7]: 23.21%; %G0-G1 [7]: 29.85%
6 | Cc1cc(C)c2c(c1)C(=NNC(=O)c1cc3cc(Br)ccc3o1)C(=O)N2 [5g, 5-Bromo-N'-(5,7-dimethyl-2-oxoindolin-3-ylidene)benzofuran-2-carbohydrazide] | > 300 °C | 0.105 ± 0.0057 µM | 0.0755 ± 0.0041 µM | 6.65 ± 0.21 µM | 12 ± 0.35 µM | –
7 | CN1C(=O)C(=NNC(=O)c2cc3cc(Br)ccc3o2)c2ccccc21 [7a, 5-Bromo-N'-(1-methyl-2-oxoindolin-3-ylidene)benzofuran-2-carbohydrazide] | 260 to 262 °C | – | – | 11.8 ± 1.05 µM | 10.4 ± 1.01 µM | –
8 | C=CCN1C(=O)C(=NNC(=O)c2cc3cc(Br)ccc3o2)c2ccccc21 [7b, N'-(1-Allyl-2-oxoindolin-3-ylidene)-5-bromobenzofuran-2-carbohydrazide] | 207 to 209 °C | – | – | 12.2 ± 0.4 µM | 2.64 ± 0.07 µM | –
9 | CC(C)CN1C(=O)C(=NNC(=O)c2cc3cc(Br)ccc3o2)c2ccccc21 [7c, 5-Bromo-N'-(1-isobutyl-2-oxoindolin-3-ylidene)benzofuran-2-carbohydrazide] | 216 to 218 °C | – | – | 43.3 ± 2.39 µM | 37 ± 1.87 µM | –
10 | CCOC(=O)CN1C(=O)C(=NNC(=O)c2cc3cc(Br)ccc3o2)c2ccccc21 [7d, Ethyl-2–(3-(2–(5-bromobenzofuran-2-carbonyl)hydrazono)-2-oxoindolin-1-yl)acetate] | 215 to 216 °C | – | – | 19 ± 0.62 µM | 7.48 ± 0.22 µM | –
11 | O=C(NN=C1C(=O)N(Cc2ccccc2)c2ccccc21)c1cc2cc(Br)ccc2o1 [7e, N'-(1-Benzyl-2-oxoindolin-3-ylidene)-5-bromobenzofuran-2-carbohydrazide] | 248 to 250 °C | – | – | 11.8 ± 0.38 µM | 8.33 ± 0.24 µM | –
12 | O=C(NN=C1C(=O)N(CCc2ccccc2)c2ccccc21)c1cc2cc(Br)ccc2o1 [7f, 5-Bromo-N'-(2-oxo-1-phenethylindolin-3-ylidene)benzofuran-2-carbohydrazide] | 239 to 241 °C | – | – | 38.7 ± 1.26 µM | 24.7 ± 0.72 µM | –
13 | CC(C)CN1C(=O)C(=NNC(=O)c2cc3cc(Br)ccc3o2)c2cc(Br)ccc21 [7g, 5-Bromo-N'-(5-bromo-1-isobutyl-2-oxoindolin-3-ylidene)benzofuran-2-carbohydrazide] | 244 to 246 °C | – | – | 9.67 ± 0.31 µM | 24.8 ± 0.73 µM | –
14 | O=C(NN=C1C(=O)N(Cc2ccccc2)c2ccc(Br)cc21)c1cc2cc(Br)ccc2o1 [7h, N'-(1-Benzyl-5-bromo-2-oxoindolin-3-ylidene)-5-bromobenzofuran-2-carbohydrazide] | 236 to 237 °C | – | – | 1.72 ± 0.04 µM | 4.32 ± 0.12 µM | –
15 | CC(C)CN1C(=O)C(=NNC(=O)Nc2cc3cc(Br)ccc3o2)c2ccccc21 [13a, N-(5-Bromobenzofuran-2-yl)-2–(1-isobutyl-2-oxoindolin-3-ylidene)hydrazine-1-carboxamide] | 208 to 210 °C | – | – | 3.22 ± 0.1 µM | 18.2 ± 0.53 µM | –
16 | O=C(NN=C1C(=O)N(Cc2ccccc2)c2ccccc21)Nc1cc2cc(Br)ccc2o1 [13b, 2–(1-Benzyl-2-oxoindolin-3-ylidene)-N-(5-bromobenzofuran-2-yl)hydrazine-1-carboxamide] | 217 to 219 °C | – | – | 10.9 ± 0.35 µM | 5.7 ± 0.16 µM | –
